Assay results as given in patent publication US8222380B2, “Amorphous telithromycin compound” (Sandoz AG, priority 2006, dated 2012).

Legend:
[1] = Stability of the amorphous state on storage judged by XRPD; type: physicochemical; details: after 8 weeks of storage
Protocol: The invention therefore relates to a stable amorphous form of telithromycin (3-De[(2,6-dideoxy-3-C-methyl-3-O-methyl-α-L-ribohexopyranosyl)oxy]-11,12-dideoxy-6-O-methyl-3-oxo-12,11-[oxycarbonyl[[4-[4-(3-pyridinyl)-1H-imidazol-1-yl]butyl]imino]]erythromycin). […] The stable amorphous form of telithromycin as obtained according to example 2 was analyzed by X-ray powder diffraction diagrams, measured using an AXS-Bruker D-8 diffractometer (Cu-radiation, Bragg Brentano Optics, 40 kV, 40 mA, steps 0.01°, time 2 seconds, cut-off 40°, standard sample carrier).

[2] = Stress storage in closed vial, impurity increase by HPLC; type: physicochemical; details: closed vial at 80° C. for 24 hours; spray-dried sample of Example 1
Protocol: The sample was stressed in a closed vial at 80° C. for 24 hours. An increase in impurities of 0.2 area % was observed when measured by HPLC under the following conditions: column: symmetry C18 3.5 μm; eluent: buffer pH 4.4 (4.76 g KH2PO4 in 2000 ml H2O adjusted to pH 4.4 using H3PO4), acetonitrile (2000 ml buffer+666 ml acetonitrile); measurement at a wavelength of 205 nm; inj. Vol […]; temperature 40° C.

In the case of CCC1OC(=O)[C@H](C)C(=O)[C@H](C)[C@@H](OC2OC(C)CC(N(C)C)C2O)[C@](C)(OC)C[C@@H](C)C(=O)[C@H](C)[C@H]2N(CCCCn3cnc(-c4cccnc4)c3)C(=O)O[C@]12C (stereo partly drawn) [amorphous telithromycin, 3-De[(2,6-dideoxy-3-C-methyl-3-O-methyl-α-L-ribohexopyranosyl)oxy]-11,12-dideoxy-6-O-methyl-3-oxo-12,11-[oxycarbonyl[[4-[4-(3-pyridinyl)-1H-imidazol-1-yl]butyl]imino]]erythromycin], the “presence of crystalline telithromycin as judged by X-ray powder diffractogram” value [1] is reported as “no signs of the presence of crystalline telithromycin” and the “increase in impurities measured by HPLC” value [2] is reported as 0.2 area %.
